The melting point is the temperature of the solid-liquid transition.

The structures appear in SMILES notation.

Regarding `COc1ccc(F)c(F)c1C(O)c1cnc(Cl)nc1Cl` (racemic) [Example 287, rac-(2,4-Dichloro-pyrimidin-5-yl)-(2,3-difluoro-6-methoxy-phenyl)-methanol], the melting point fell in the range of 99 to 101 °C. To `CCS(=O)(=O)c1ncc(C(=O)c2cc(F)ccc2OC)c(N)n1` [Example 48, (4-Amino-2-ethanesulfonyl-pyrimidin-5-yl)-(5-fluoro-2-methoxy-phenyl)-methanone] belongs 174 to 175 °C. The value for `CC[S+]([O-])c1ncc(C(=O)c2cc(F)ccc2OC)c(N)n1` (stereo not shown) [Example 163, (4-Amino-2-ethanesulfinyl-pyrimidin-5-yl)-(5-fluoro-2-methoxy-phenyl)-methanone] was 150 to 152 °C. Turning to `COc1ccc(F)cc1C(=O)c1cnc(NC2CCN(C(=O)OC(C)(C)C)CC2)nc1N` [Example 164, 4-[4-Amino-5-(5-fluoro-2-methoxy-benzoyl)-pyrimidin-2-ylamino]-piperidine-1-carboxylic acid tert-butyl ester], the melting point was 122 to 124 °C (dec.).

Compound `CS(=O)(=O)N1CCC(Nc2ncc(C(=O)c3ccccc3)c(N)n2)CC1` [Example 283, [4-Amino-2-(1-methanesulfonyl-piperidin-4-ylamino)-pyrimidin-5-yl]-phenyl-methanone] returned a melting point of 249 to 250 °C. For the compound `COc1ccc(F)c(F)c1C(=O)c1cnc(NC2CCN(C=O)CC2)nc1N` [Example 284, 4-[4-Amino-5-(2,3-difluoro-6-methoxy-benzoyl)-pyrimidin-2-ylamino]-piperidine-1-carbaldehyde], the melting point is 263 °C (dec.). The value for `COc1ccc(F)c(F)c1C(=O)c1cnc(NC2CCN(S(N)(=O)=O)CC2)nc1N` [Example 285, 4-[4-Amino-5-(2,3-difluoro-6-methoxy-benzoyl)-pyrimidin-2-ylamino]-piperidine-1-sulfonic acid amide] was 217 to 218 °C; that for `COc1ccc(F)c(F)c1C(=O)c1cnc(NC2CCN(S(=O)(=O)NC(C)=O)CC2)nc1N` [Example 286, 4-[4-Amino-5-(2,3-difluoro-6-methoxy-benzoyl)-pyrimidin-2-ylamino]-piperidine-1-sulfonic acid acetyl-amide] was 153 °C (dec.); that for `COc1ccc(F)c(F)c1C(=O)c1cnc(Cl)nc1Cl` [Example 288, (2,4-Dichloro-pyrimidin-5-yl)-(2,3-difluoro-6-methoxy-phenyl)-methanone] was 137 to 139 °C. As for `COc1ccc(F)c(F)c1C(=O)c1cnc(Cl)nc1N` [Example 289, (4-Amino-2-chloro-pyrimidin-5-yl)-(2,3-difluoro-6-methoxy-phenyl)-methanone], the melting point was 238 to 239 °C (dec.).

Source of the values: patent US7157455B2, “4-Aminopyrimidine-5-one derivatives” (Hoffmann-La Roche Inc., priority 2003, dated 2007).
